# Earlier results as cited in patent publication US6863905B1, “Enhanced iodine treatment of drinking water” (Shanbrom Technologies, LLC, priority 2002, dated 2005).
# Settings: at 20° C.
smiles,measurement,value
II [iodine],solubility in water,300 µg/mL
